# Laboratory results from patent US9493455B2, “Azaindole derivatives as inhibitors of protein kinases” (ORIBASE PHARMA, priority 2012, dated 2016).
# How the values were obtained:
# EGFR (ErbB1) = biological target: T1, EGFR (ErbB1) (Homo sapiens, UniProt P00533); test: In vitro kinase assay (Z′-LYTE); assay type: biochemical; conditions: read-out: % of inhibition of the kinase compared to the control
# T1 construct: purchased Invitrogen
# Protocol: (§1) The inhibitory activity of the compounds on several kinases including BRAF, EGFR (ErbB1), EGFR (ErbB1) T790M L858R, FGFR2, KDR (VEGFR2), PDGFRA (PDGFR alpha), SRC and other was evaluated by Invitrogen using the Z′-LYTE® technology. Briefly, the Z′-LYTE® biochemical assay employs a fluorescence-based, coupled-enzyme format and is based on the differential sensitivity of phosphorylated and non-phosphorylated peptides to proteolytic cleavage. The peptide substrate is labeled with two fluorophores—one at each end—that make up a FRET pair. A ratiometric method, which calculates the ratio (the Emission Ratio) of donor emission to acceptor emission after excitation of the donor fluorophore at 400 nm, is used to quantitate reaction progress.
# (§2) The compounds are screened in 1% DMSO (final) in the well. For 10 point titrations, 3-fold serial dilutions are conducted from the starting concentration. All Peptide/Kinase Mixtures are diluted to a 2× working concentration in the appropriate Kinase Buffer. All ATP Solutions are diluted to a 4× working concentration in Kinase Buffer (50 mM HEPES pH 7.5, 0.01% BRIJ-35, 10 mM MgCl2, 1 mM EGTA). ATP Km apparent is previously determined using a Z′-LYTE® assay.
# (§3) Each compound was incubated at a concentration of 100 nM (excepted to test the activity against ABL and ABL T315I for which the compounds were incubated at a concentration of 10 μM) and the tables B1 to B12 summarize the results obtained showing the inhibitory power of a compound. The inhibitory activity of OR0512 was also investigated using the same assays and the kinases for which activity was inhibited at more than 50% at the concentration of 100 nM of OR0512 are listed in the table B13.
# FGFR2 = biological target: T2, FGFR2 (Homo sapiens, UniProt P21802); test: In vitro kinase assay (Z′-LYTE); assay type: biochemical; conditions: read-out: % of inhibition of the kinase compared to the control
# T2 construct: purchased Invitrogen
# Protocol: as §1, §2, §3
# KDR (VEGFR2) = biological target: T3, KDR (VEGFR2) (Homo sapiens, UniProt P35968); test: In vitro kinase assay (Z′-LYTE); assay type: biochemical; conditions: read-out: % of inhibition of the kinase compared to the control
# T3 construct: purchased Invitrogen
# Protocol: as §1, §2, §3
# BRAF = biological target: T4, BRAF (Homo sapiens, UniProt P15056); test: In vitro kinase assay (Z′-LYTE); assay type: biochemical; conditions: compound 100 nM; ATP 100 μM; read-out: % of inhibition of the kinase compared to the control
# T4 construct: purchased Invitrogen
# Protocol: as §1, §2, §3
# PDGFRA (PDGFR alpha) = biological target: T5, PDGFRA (PDGFR alpha) (Homo sapiens, UniProt P16234); test: In vitro kinase assay (Z′-LYTE); assay type: biochemical; conditions: read-out: % of inhibition of the kinase compared to the control
# T5 construct: purchased Invitrogen
# Protocol: as §1, §2, §3
# HUVEC = test: In vitro cell proliferation assay (MTT); assay type: cell-based; conditions: Homo sapiens, 72 h
# Protocol: (§4) Cancer cell lines (5×10^3 cells per well) or HUVEC (1×10^4 cells per well) or HRMEC (1×10^4 cells per well) were distributed in 96-well plates and incubating in duplicate with escalating concentrations (10 nM to 3 μM) of compounds for 72 hr. Cell proliferation was measured using MTT (3 [4,5-dimethylthiazol-2-yl]-2,5-diphenyltetrazolium bromide).
# MDA-MB-231 = test: In vitro cell proliferation assay (MTT); assay type: cell-based; conditions: Homo sapiens, MDA-MB-231, 72 h
# Protocol: as §4
# HepG2 = test: In vitro cell proliferation assay (MTT); assay type: cell-based; conditions: Homo sapiens, HepG2, 72 h
# Protocol: as §4
# A549 = test: In vitro cell proliferation assay (MTT); assay type: cell-based; conditions: Homo sapiens, A549, 72 h
# Protocol: as §4
# HeLa = test: In vitro cell proliferation assay (MTT); assay type: cell-based; conditions: Homo sapiens, 72 h
# Protocol: as §4
# SRC = biological target: T6, SRC (Homo sapiens, UniProt P12931); test: In vitro kinase assay (Z′-LYTE); assay type: biochemical; conditions: read-out: % of inhibition of the kinase compared to the control
# T6 construct: purchased Invitrogen
# Protocol: as §1, §2, §3
# EGFR (ErbB1) T790M L858R = biological target: T7, EGFR (ErbB1) T790M L858R (Homo sapiens, UniProt P00533, L858R/T790M); test: In vitro kinase assay (Z′-LYTE); assay type: biochemical; conditions: read-out: % of inhibition of the kinase compared to the control
# T7 construct: purchased Invitrogen
# Protocol: as §1, §2, §3
# ABL = biological target: T8, ABL (Homo sapiens, UniProt P00519); test: In vitro kinase assay (Z′-LYTE); assay type: biochemical; conditions: read-out: % of inhibition of the kinase compared to the control
# T8 construct: purchased Invitrogen
# Protocol: as §1, §2, §3
# VEGFR1 = biological target: T9, VEGFR1 (Homo sapiens, UniProt P17948); test: In vitro kinase assay (Z′-LYTE); assay type: biochemical; conditions: read-out: % of inhibition of the kinase compared to the control
# T9 construct: purchased Invitrogen
# Protocol: as §1, §2, §3
# ABL T315I = biological target: T10, ABL T315I (Homo sapiens, UniProt P00519, T315I); test: In vitro kinase assay (Z′-LYTE); assay type: biochemical; conditions: read-out: % of inhibition of the kinase compared to the control
# T10 construct: purchased Invitrogen
# Protocol: as §1, §2, §3
# PDGFRB = biological target: T11, PDGFRB (Homo sapiens, UniProt P09619); test: In vitro kinase assay (Z′-LYTE); assay type: biochemical; conditions: read-out: % of inhibition of the kinase compared to the control
# T11 construct: purchased Invitrogen
# Protocol: as §1, §2, §3
# FGFR1 = biological target: T12, FGFR1 (Homo sapiens, UniProt P11362); test: In vitro kinase assay (Z′-LYTE); assay type: biochemical; conditions: read-out: % of inhibition of the kinase compared to the control
# T12 construct: purchased Invitrogen
# Protocol: as §1, §2, §3
# HuCCT1 = test: In vitro cell proliferation assay (MTT); assay type: cell-based; conditions: Homo sapiens, HuCCT-1, 72 h
# Protocol: as §4
# BxPC-3 = test: In vitro cell proliferation assay (MTT); assay type: cell-based; conditions: Homo sapiens, BXPC-3, 72 h
# Protocol: as §4
# HT29 = test: In vitro cell proliferation assay (MTT); assay type: cell-based; conditions: Homo sapiens, HT-29, 72 h
# Protocol: as §4
# H1975 = test: In vitro cell proliferation assay (MTT); assay type: cell-based; conditions: Homo sapiens, NCI-H1975, 72 h
# Protocol: as §4
# T4 sequence (P15056 whole entry): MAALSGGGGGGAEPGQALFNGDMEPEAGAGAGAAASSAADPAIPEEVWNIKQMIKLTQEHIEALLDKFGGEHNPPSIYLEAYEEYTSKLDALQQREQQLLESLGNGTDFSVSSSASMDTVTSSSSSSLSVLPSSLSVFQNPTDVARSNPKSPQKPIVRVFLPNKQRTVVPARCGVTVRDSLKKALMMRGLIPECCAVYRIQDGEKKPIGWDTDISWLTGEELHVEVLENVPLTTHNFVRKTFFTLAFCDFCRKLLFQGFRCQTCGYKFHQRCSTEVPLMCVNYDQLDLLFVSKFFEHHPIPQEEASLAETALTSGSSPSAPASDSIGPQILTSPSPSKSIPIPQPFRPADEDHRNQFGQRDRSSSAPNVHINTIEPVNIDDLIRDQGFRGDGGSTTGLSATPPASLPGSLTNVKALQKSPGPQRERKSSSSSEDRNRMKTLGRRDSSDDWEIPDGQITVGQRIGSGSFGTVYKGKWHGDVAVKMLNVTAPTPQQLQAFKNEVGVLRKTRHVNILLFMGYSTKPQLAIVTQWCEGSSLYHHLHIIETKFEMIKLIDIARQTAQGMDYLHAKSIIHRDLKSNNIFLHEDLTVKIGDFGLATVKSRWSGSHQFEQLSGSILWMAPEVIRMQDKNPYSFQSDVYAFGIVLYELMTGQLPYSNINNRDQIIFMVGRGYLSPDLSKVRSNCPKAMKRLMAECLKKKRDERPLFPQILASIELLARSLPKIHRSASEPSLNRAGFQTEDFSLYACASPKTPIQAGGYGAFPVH
# T11 sequence (P09619 33-1106): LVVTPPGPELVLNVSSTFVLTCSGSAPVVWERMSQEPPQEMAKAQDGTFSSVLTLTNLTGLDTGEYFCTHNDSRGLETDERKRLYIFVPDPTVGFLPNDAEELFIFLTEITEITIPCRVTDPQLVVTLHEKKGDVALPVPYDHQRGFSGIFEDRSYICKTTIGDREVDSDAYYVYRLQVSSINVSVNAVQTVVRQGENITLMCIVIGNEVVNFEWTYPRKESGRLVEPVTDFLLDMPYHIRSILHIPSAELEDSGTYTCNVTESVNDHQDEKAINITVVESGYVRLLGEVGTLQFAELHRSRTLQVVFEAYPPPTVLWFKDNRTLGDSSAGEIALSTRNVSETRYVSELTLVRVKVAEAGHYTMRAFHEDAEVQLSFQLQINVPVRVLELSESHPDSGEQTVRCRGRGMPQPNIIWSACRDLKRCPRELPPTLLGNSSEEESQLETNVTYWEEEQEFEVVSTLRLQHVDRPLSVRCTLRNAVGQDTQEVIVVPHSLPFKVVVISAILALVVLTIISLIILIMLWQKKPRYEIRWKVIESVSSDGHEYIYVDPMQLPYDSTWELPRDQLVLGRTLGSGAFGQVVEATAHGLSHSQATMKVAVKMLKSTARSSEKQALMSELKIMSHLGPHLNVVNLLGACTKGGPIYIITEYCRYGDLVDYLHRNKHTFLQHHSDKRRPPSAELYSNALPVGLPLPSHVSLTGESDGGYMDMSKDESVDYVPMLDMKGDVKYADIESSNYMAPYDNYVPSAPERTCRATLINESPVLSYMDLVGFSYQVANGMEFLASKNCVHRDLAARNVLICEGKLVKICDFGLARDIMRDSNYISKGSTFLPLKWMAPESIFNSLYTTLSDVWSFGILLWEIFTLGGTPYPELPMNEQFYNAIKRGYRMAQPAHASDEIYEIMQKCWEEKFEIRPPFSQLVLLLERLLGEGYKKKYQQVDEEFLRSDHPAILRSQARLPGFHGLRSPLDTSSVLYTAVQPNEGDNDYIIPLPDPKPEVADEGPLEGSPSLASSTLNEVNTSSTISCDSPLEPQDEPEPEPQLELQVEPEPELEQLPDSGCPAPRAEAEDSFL
# T7 sequence (P00533 25-1210 T790M/L858R): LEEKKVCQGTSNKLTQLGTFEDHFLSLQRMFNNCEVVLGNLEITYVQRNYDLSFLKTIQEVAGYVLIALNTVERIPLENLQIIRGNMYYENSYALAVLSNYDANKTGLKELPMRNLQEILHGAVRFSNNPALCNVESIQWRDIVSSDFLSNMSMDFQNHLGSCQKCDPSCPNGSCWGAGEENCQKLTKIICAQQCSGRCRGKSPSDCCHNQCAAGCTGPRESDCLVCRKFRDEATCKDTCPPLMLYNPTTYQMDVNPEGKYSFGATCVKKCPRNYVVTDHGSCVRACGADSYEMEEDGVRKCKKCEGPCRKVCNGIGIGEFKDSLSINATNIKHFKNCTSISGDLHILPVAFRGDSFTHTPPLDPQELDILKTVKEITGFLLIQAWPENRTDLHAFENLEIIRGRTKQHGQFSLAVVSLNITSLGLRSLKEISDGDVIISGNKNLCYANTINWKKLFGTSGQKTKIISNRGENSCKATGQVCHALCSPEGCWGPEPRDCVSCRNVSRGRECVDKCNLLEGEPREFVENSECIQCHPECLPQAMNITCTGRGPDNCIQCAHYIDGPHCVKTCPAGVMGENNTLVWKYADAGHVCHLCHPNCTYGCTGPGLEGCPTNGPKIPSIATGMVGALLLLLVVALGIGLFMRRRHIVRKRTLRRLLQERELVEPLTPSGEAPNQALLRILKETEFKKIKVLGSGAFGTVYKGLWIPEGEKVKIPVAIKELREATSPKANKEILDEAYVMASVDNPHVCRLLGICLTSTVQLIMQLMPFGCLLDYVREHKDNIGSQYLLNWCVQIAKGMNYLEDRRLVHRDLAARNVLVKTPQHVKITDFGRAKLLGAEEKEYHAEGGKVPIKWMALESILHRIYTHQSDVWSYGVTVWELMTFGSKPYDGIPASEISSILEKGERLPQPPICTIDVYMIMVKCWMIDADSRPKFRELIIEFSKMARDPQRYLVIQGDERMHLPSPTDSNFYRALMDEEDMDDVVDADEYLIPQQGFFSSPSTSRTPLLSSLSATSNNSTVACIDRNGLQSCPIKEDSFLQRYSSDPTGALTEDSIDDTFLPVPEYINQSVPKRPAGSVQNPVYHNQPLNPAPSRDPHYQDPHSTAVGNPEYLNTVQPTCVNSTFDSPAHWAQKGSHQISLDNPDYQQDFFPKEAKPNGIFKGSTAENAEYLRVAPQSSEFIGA
# T5 sequence (P16234 24-1089): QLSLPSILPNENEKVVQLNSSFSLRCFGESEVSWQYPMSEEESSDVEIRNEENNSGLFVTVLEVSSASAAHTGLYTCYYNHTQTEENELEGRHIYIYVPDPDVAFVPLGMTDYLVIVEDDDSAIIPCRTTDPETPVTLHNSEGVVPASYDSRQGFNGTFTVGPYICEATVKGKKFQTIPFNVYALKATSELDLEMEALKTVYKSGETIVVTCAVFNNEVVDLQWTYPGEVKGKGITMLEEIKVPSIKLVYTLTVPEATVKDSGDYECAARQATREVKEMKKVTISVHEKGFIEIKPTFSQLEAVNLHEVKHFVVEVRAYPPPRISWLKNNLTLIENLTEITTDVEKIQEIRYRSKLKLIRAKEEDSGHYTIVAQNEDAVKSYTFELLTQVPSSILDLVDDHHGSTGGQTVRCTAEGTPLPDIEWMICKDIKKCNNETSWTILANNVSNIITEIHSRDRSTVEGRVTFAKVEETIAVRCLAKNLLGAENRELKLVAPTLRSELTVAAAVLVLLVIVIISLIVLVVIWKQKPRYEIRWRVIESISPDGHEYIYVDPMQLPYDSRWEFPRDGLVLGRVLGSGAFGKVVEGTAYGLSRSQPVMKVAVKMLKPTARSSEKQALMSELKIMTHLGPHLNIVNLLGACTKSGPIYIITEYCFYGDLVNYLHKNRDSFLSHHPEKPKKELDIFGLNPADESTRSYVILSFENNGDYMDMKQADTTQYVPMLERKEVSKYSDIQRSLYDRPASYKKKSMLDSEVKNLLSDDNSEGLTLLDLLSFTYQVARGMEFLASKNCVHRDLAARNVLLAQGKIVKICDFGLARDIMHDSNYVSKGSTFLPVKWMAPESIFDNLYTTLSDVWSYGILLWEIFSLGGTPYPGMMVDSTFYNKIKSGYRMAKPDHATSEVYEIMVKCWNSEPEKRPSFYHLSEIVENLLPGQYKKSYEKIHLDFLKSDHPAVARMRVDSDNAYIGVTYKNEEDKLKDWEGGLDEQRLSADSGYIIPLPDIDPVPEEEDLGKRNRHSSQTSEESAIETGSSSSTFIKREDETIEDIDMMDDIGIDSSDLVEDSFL
# T6 sequence (P12931 whole entry): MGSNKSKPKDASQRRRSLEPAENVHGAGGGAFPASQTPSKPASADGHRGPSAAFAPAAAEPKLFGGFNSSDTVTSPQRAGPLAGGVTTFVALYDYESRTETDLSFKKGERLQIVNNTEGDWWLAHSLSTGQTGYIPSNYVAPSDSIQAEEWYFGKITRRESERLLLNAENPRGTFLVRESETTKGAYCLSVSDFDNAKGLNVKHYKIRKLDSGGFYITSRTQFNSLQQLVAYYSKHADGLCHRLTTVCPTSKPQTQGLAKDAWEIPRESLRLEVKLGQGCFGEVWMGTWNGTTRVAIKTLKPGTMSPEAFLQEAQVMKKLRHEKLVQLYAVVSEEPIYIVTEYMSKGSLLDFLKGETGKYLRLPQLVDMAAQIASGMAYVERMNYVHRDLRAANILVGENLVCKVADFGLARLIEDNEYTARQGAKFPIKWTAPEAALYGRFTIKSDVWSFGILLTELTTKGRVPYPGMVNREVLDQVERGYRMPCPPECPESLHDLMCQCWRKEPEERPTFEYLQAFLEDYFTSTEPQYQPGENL
inhibition at 0.1 µM (EGFR (ErbB1)),inhibition at 0.1 µM (FGFR2),inhibition at 0.1 µM (KDR (VEGFR2)),inhibition at 0.1 µM (BRAF),inhibition at 0.1 µM (PDGFRA (PDGFR alpha)),EC50 (MDA-MB-231),EC50 (HepG2),EC50 (A549),EC50 (HeLa),inhibition at 0.1 µM (SRC),inhibition at 0.1 µM (EGFR (ErbB1) T790M L858R),inhibition at 10 µM (ABL),inhibition at 0.1 µM (VEGFR1),inhibition at 10 µM (ABL T315I),inhibition at 0.1 µM (PDGFRB),inhibition at 0.1 µM (FGFR1),EC50 (BxPC-3),EC50 (HT29),Compound,EC50 (HUVEC),EC50 (HuCCT1),further results
< 50%,< 50%,< 50%,< 50%,< 50%,≥ 1000 nM,≥ 1000 nM,≥ 1000 nM,≥ 1000 nM,–,–,–,–,–,–,–,–,–,COC(=O)c1cc2cc(NCc3cc(NC(=O)Nc4ccncc4)ccc3C)cnc2[nH]1 [OR0952],≥ 1000 nM,–,–
< 50%,< 50%,≥ 50%,≥ 50%,≥ 50%,–,100 to 1000 nM,100 to 1000 nM,–,≥ 50%,< 50%,≥ 50%,< 50%,< 50%,≥ 50%,< 50%,100 to 1000 nM,100 to 1000 nM,COC(=O)c1cc2cc(NCc3cc(NC(=O)c4cccc(C)c4)ccc3C)cnc2[nH]1 [OR0607],≤ 100 nM,100 to 1000 nM,EC50 (H1975): 100 to 1000 nM
≥ 50%,≥ 50%,≥ 50%,< 50%,≥ 50%,–,≥ 1000 nM,100 to 1000 nM,100 to 1000 nM,≥ 50%,–,–,–,–,–,–,–,–,COC(=O)c1cc2cc(NCc3cccc(NC(=O)c4ccc(CN5CCN(C)CC5)c(C(F)(F)F)c4)c3)cnc2[nH]1 [OR1067],≤ 100 nM,–,–
≥ 50%,≥ 50%,< 50%,< 50%,–,100 to 1000 nM,≥ 1000 nM,≥ 1000 nM,≥ 1000 nM,–,–,–,–,–,–,–,–,–,COC(=O)c1cc2cc(NCc3cc(NC(=S)c4ccc(CN5CCN(C)CC5)c(C(F)(F)F)c4)ccc3C)cnc2[nH]1 [OR0626],≥ 1000 nM,–,–
< 50%,< 50%,≥ 50%,≥ 50%,≥ 50%,–,≥ 1000 nM,≥ 1000 nM,–,≥ 50%,< 50%,≥ 50%,< 50%,< 50%,≥ 50%,< 50%,≥ 1000 nM,≥ 1000 nM,COC(=O)c1cc2cc(NCc3cc(NC(=O)c4ccc5c(c4)OCO5)ccc3C)cnc2[nH]1 [OR0615],100 to 1000 nM,≥ 1000 nM,EC50 (H1975): ≥ 1000 nM
< 50%,< 50%,< 50%,≥ 50%,≥ 50%,–,100 to 1000 nM,100 to 1000 nM,–,≥ 50%,< 50%,≥ 50%,< 50%,< 50%,≥ 50%,< 50%,≥ 1000 nM,≥ 1000 nM,COC(=O)c1cc2cc(NCc3cc(NC(=O)Cc4ccccc4Br)ccc3C)cnc2[nH]1 [OR0599],100 to 1000 nM,≥ 1000 nM,EC50 (H1975): 100 to 1000 nM
< 50%,< 50%,< 50%,< 50%,< 50%,≥ 1000 nM,≥ 1000 nM,≥ 1000 nM,≥ 1000 nM,–,–,–,–,–,–,–,–,–,COC(=O)c1cc2cc(NC(=O)c3cccc(CNC(=S)c4cccc(C(F)(F)F)c4)c3)cnc2[nH]1 [OR1011],≥ 1000 nM,–,–
< 50%,–,< 50%,< 50%,–,100 to 1000 nM,100 to 1000 nM,≥ 1000 nM,≥ 1000 nM,–,–,–,–,–,–,–,–,–,COC(=O)c1cc2cc(NCc3cc(NC(=S)Nc4cccc(C(F)(F)F)c4)ccc3C)cnc2[nH]1 [OR1016],≥ 1000 nM,–,–
